PubChem BioAssay AID1996
Converted amounts (≈) assume the structure as drawn.

Conditions: buffer; pH 7.4; 200.0 µM

SMILES | solubility kinetic
CCOC(=O)C1CCN(C(=O)COC(=O)/C=C/c2cccc(OC)c2OC)CC1 | 60.5 µg/mL (≈ 149 µM)
Cc1ccc(OCc2nc(-c3ccccc3)no2)cc1 | 0.4 µg/mL (≈ 1.5 µM)
CCOC(=O)CN1C(=O)C(=O)N(Cc2c(C)cc(C)cc2C)C1=O | 14 µg/mL (≈ 42.1 µM)
O=C(O)CCCCCNC(=O)OCC1c2ccccc2-c2ccccc21 | 3.4 µg/mL (≈ 9.62 µM)
C[C@H](NC(N)=O)C(=O)Nc1ccc2c(c1)OCO2 | 32.9 µg/mL (≈ 131 µM)
CN1CCN(C2CCN(c3cccc(Cl)c3)CC2)CC1CCO (stereo not given) | 36.8 µg/mL (≈ 109 µM)
N#C/C(=C\c1ccc(O)c(O)c1)C(=O)N1CCCC1 | 37.3 µg/mL (≈ 144 µM)
CC(C)(C)c1cc(NC(=O)c2cccs2)no1 | 32.7 µg/mL (≈ 131 µM)
O=C(Nc1ccc(O)cc1)c1ccc(NC(=O)c2ccco2)cc1 | 1.8 µg/mL (≈ 5.58 µM)
Cc1c(C(=O)Nc2nccs2)oc2ccc(F)cc12 | 3.1 µg/mL (≈ 11.2 µM)
Cc1cccc(N2C(=O)C(O)=C(C(=O)c3cccs3)C2c2ccccc2)n1 (stereo not given) | 53 µg/mL (≈ 141 µM)
COC(=O)c1sc(-c2cccs2)cc1N | 7.2 µg/mL (≈ 30.1 µM)
Cc1ccccc1N=CC1=C(O)c2ccccc2C1=O | < 0.6 µg/mL
COc1cc(C)ccc1OCCON1C(=O)CCC1=O | > 41.9 µg/mL
CN(C)c1ccc(NC(=O)C[n+]2ccccc2)cc1.[Cl-] | > 43.8 µg/mL
CC(=O)c1ccc(N2CCN(C(=O)Cc3cccs3)CC2)cc1 | 47.3 µg/mL (≈ 144 µM)
O=C(CN1C(=O)NC(c2ccccc2)(c2ccccc2)C1=O)NCc1ccc(F)cc1 | 6.4 µg/mL (≈ 15.3 µM)

SMILES | solubility kinetic
Cc1noc(C)c1CN1C(=O)c2ccc([N+](=O)[O-])cc2C1=O | > 45.2 µg/mL
CC1(C)CC(=O)C(C(O)c2ccccc2)C(C)(C)N1 (stereo not given) | 35.2 µg/mL (≈ 135 µM)
CC(OC(=O)c1ccc2c(c1)S(=O)(=O)c1ccccc1C2=O)C(N)=O (stereo not given) | 29.3 µg/mL (≈ 81.5 µM)
O=C(CSc1ccc(Cl)cc1)Nc1ccc(C2SCCS2)cc1 | 1 µg/mL (≈ 2.62 µM)
CC1C(=O)N2CCCc3cc(NC(=O)C4CC4)cc1c32 (stereo not given) | 36.3 µg/mL (≈ 134 µM)
Nc1nccnc1C(=O)OCC(=O)NC1CCCc2ccccc21 (stereo not given) | 44.5 µg/mL (≈ 136 µM)
CC(NC(=O)c1ccccc1N)c1ccccc1 (stereo not given) | > 36 µg/mL
Cl.O=[N+]([O-])c1cc(S(=O)(=O)CCCN2CCOCC2)ccc1F | > 55.3 µg/mL
CCOc1ccc(/C=C2\SC(=S)N(C)C2=O)cc1OC | < 0.7 µg/mL
O=C(/C=C/c1cccc(Br)c1)NCc1ccncc1 | 37.2 µg/mL (≈ 117 µM)
OCC1CCCN(c2ncnc3scc(-c4ccccc4)c23)C1 (stereo not given) | 47.4 µg/mL (≈ 146 µM)
O=C(COC(=O)C1CC1)NC(=O)NCc1ccccc1 | > 41.4 µg/mL
O=Cc1cccc(Oc2ncccn2)c1 | > 30 µg/mL
COc1ccc2oc(=N)c(C(=O)Nc3cccc(C)c3C)cc2c1 | < 0.3 µg/mL
Cc1ccc(C2SCC(=O)N2Cc2ccccc2)cc1 (stereo not given) | 21.9 µg/mL (≈ 77.3 µM)
CCOc1ccc(C(NC(=O)CC)c2c(O)ccc3ccccc23)cc1 (stereo not given) | 2 µg/mL (≈ 5.72 µM)
CCOc1ccc(-c2nonc2NC(=O)c2ccco2)cc1 | 12.1 µg/mL (≈ 40.4 µM)

Further lines, results first:

solubility kinetic | SMILES
10.2 µg/mL (≈ 29.8 µM) | O=C(Nc1ccc(NC(=O)c2ccccc2Cl)nc1)c1ccco1
1.1 µg/mL (≈ 3.31 µM) | Cc1ccc(NS(=O)(=O)c2cccc3cccnc23)c(Cl)c1
> 42.1 µg/mL | CCc1nccn1Cc1cc(C=O)ccc1OC.Cl
17 µg/mL (≈ 59.4 µM) | Nc1sc2c(c1C(=O)NCCc1ccccc1)CCC2
28.7 µg/mL (≈ 131 µM) | Cc1cccc(C)c1OCCN1CCCC1
> 46.9 µg/mL | CCn1c(C(O)c2cc(OC)ccc2OC)nc2ccccc21 (stereo not given)
> 39.5 µg/mL | Cc1ccc(C(=O)N2CCN(C)CC2)cc1[N+](=O)[O-]
49.9 µg/mL (≈ 114 µM) | NS(=O)(=O)c1cccc(NC(=O)c2cccc(S(=O)(=O)N3CCCCCC3)c2)c1
3.1 µg/mL (≈ 11.4 µM) | CCc1nonc1NC(=O)c1oc2ccccc2c1C
1.4 µg/mL (≈ 3.69 µM) | O=C(CSc1nccc(-c2cccs2)n1)Nc1ccc(F)c(Cl)c1
> 31.7 µg/mL | O=C(CCl)c1ccc2[nH]c(=O)oc2c1
> 45 µg/mL | CCn1cc(S(=O)(=O)Nc2ccc(C)c(Cl)c2)cn1
< 0.4 µg/mL | COc1cccc(C(C)NC(=O)Nc2cc(Cl)ccc2OC)c1 (stereo not given)
45.7 µg/mL (≈ 144 µM) | Cc1ccc(CCN2CC(C(=O)NCCC(C)C)CC2=O)cc1 (stereo not given)
4.1 µg/mL (≈ 16.5 µM) | Cc1ccc(NC(=O)/C=C2\NC(=O)CS2)cc1
10.7 µg/mL (≈ 45 µM) | O=C(Nc1cccc(Cl)c1)Nc1ccon1
45.3 µg/mL (≈ 145 µM) | COc1ccc(NC(=O)N2CCCc3ccccc32)c(OC)c1
3.7 µg/mL (≈ 12.2 µM) | Cc1cccc(SCC(=O)Nc2ccccc2[N+](=O)[O-])c1
> 43.9 µg/mL | CCOC(=O)c1nn(-c2ccc(Cl)cc2)c(C)cc1=O
> 48.6 µg/mL | Cc1ccc2nc(CCc3ccc(N)cc3)[nH]c2c1.Cl
< 0.4 µg/mL | COc1ccc(S(=O)(=O)/C(C#N)=C/Nc2cccc(F)c2)cc1
> 55.8 µg/mL | Cc1onc(-c2c(Cl)cccc2Cl)c1NC(=O)N1CCSCC1
34.3 µg/mL (≈ 113 µM) | Cc1ccc(N2CC(C(=O)N3CCOCC3)CC2=O)cc1C (stereo not given)
5.5 µg/mL (≈ 21.3 µM) | Cn1c(Nc2cccc(Cl)c2)nc2ccccc21
> 43.7 µg/mL | Cc1ccc(S(=O)(=O)NC(=S)c2ccccc2)cc1
2.7 µg/mL (≈ 5.94 µM) | O=C(COC(=O)/C=C/c1ccco1)Nc1cc(S(=O)(=O)N2CCOCC2)ccc1Cl
